Where two headings read alike, the source gives them in different places.
Assays:
Assay type in all cases: cell-based
OVCAR-4 cancer cells = experiment: antitumor activity, sulforhodamine B cell growth assay, OVCAR-4; conditions: OVCAR-4, drug exposure 48 hours, read-out: GI50 value: 50% growth inhibitory concentration
Description: (§1) The THIQ compound containing a macrocyclic structure of the present invention was administered to various cancer cell lines, and the antitumor activity (Go value) was observed. Specifically, verification was performed according to the literature (Yamori, T.; Matsunaga, A.; Sato, S.; Yamazaki, K.; Komi, A.; Ishizu, K. et al. Cancer Res. 1999, 59, 4042) by the following procedure.
(§2) Cells were plated at an appropriate density in a 96-well plate in RPMI 1640 together with 5% fetal bovine serum, and adhered overnight. The cells were exposed to a drug for 48 hours. Then, according to the sulforhodamine B assay described by Skehan et al (Skehan P., Storeng R., Scudiero D., Monks A., McMahon J., Vistica D., Warren J. T., Bokesch H., Kenney S., Boyd M. R. J Natl. Cancer Inst, 1990, 82, 1107-1112), the cell growth rate was measured. The absorbance of the control well (C) and the test well (T) was measured at 525 nm. In addition, the time at which the drug was added was set as time 0, and the absorbance for the test well (T0) was measured. Using these measured values, the cell growth inhibitory effect (% growth=PG) was calculated by the following formula at each concentration of the drug.
(§3) (T<T0): PG=100×[(T−T0)/T]
(§4) The PG values determined above for each cell line were plotted against the concentration (logarithm) on a semi-logarithmic graph, and summarized for each visceral cancer. Concentrations at which the dose-response curve of each cell line crossed the horizontal line of PG=50%, 0%, or −50% were calculated. These concentrations were defined as Log GI50, Log TGI, and Log LC50. Actually, using two data points of the drug concentration before and after crossing each horizontal line, the drug concentration (logarithmic value) at the intersection of the straight line connecting the two points and the horizontal line for each PG was calculated.

OVCAR-3 cancer cells = experiment: antitumor activity, sulforhodamine B cell growth assay, OVCAR-3; conditions: OVCAR-3, drug exposure 48 hours, read-out: GI50 value: 50% growth inhibitory concentration
Description: as §1, §2, §3, §4

[1] = system: St-4 gastric cancer cells; experiment: antitumor activity, sulforhodamine B cell growth assay, St-4; conditions: St-4 (SI-4 in Tables 2-11), drug exposure 48 hours; read-out: GI50 value: 50% growth inhibitory concentration
Description: as §1, §2, §3, §4

LOX-IMVI melanoma cells = experiment: antitumor activity, sulforhodamine B cell growth assay, LOX-IMVI; conditions: LOX-IMVI, drug exposure 48 hours, read-out: GI50 value: 50% growth inhibitory concentration
Description: as §1, §2, §3, §4

[2] = system: MKN-B gastric cancer cells; experiment: antitumor activity, sulforhodamine B cell growth assay, MKN-B; conditions: MKN-B, drug exposure 48 hours; read-out: GI50 value: 50% growth inhibitory concentration
Description: as §1, §2, §3, §4

[3] = system: MKN-A gastric cancer cells; experiment: antitumor activity, sulforhodamine B cell growth assay, MKN-A; conditions: MKN-A, drug exposure 48 hours; read-out: GI50 value: 50% growth inhibitory concentration
Description: as §1, §2, §3, §4

[4] = system: NCI-H226 lung cancer cells; experiment: antitumor activity, sulforhodamine B cell growth assay, NCI-H226; conditions: NCI-H226, drug exposure 48 hours, read-out: GI50 value: 50% growth inhibitory concentration
Description: as §1, §2, §3, §4

[5] = system: various cancer cell lines; experiment: Verification of antitumor activity, whole panel of cancer cell lines; conditions: in words, compared with Cyanosafracin B
Description: as §1, §2, §3, §4

[6] = system: U251 central nervous system cancer cells; experiment: antitumor activity, sulforhodamine B cell growth assay, U251; conditions: U251, drug exposure 48 hours, read-out: GI50 value: 50% growth inhibitory concentration
Description: as §1, §2, §3, §4

[7] = system: HBC-5 breast cancer cells; experiment: antitumor activity, sulforhodamine B cell growth assay, HBC-5; conditions: HBC-5, drug exposure 48 hours, read-out: GI50 value: 50% growth inhibitory concentration
Description: as §1, §2, §3, §4

[8] = system: MKN1 gastric cancer cells; experiment: antitumor activity, sulforhodamine B cell growth assay, MKN1; conditions: MKN1, drug exposure 48 hours, read-out: GI50 value: 50% growth inhibitory concentration
Description: as §1, §2, §3, §4

[9] = system: KM-12 colorectal cancer cells; experiment: antitumor activity, sulforhodamine B cell growth assay, KM-12; conditions: KM-12, drug exposure 48 hours, read-out: GI50 value: 50% growth inhibitory concentration
Description: as §1, §2, §3, §4

[10] = system: HT-29 colorectal cancer cells; experiment: antitumor activity, sulforhodamine B cell growth assay, HT-29; conditions: HT-29, drug exposure 48 hours, read-out: GI50 value: 50% growth inhibitory concentration
Description: as §1, §2, §3, §4

[11] = system: HCT-15 colorectal cancer cells; experiment: antitumor activity, sulforhodamine B cell growth assay, HCT-15; conditions: HCT-15, drug exposure 48 hours, read-out: GI50 value: 50% growth inhibitory concentration
Description: as §1, §2, §3, §4

[12] = system: RXF-631L kidney cancer cells; experiment: antitumor activity, sulforhodamine B cell growth assay, RXF-631L; conditions: RXF-631L, drug exposure 48 hours; read-out: GI50 value: 50% growth inhibitory concentration
Description: as §1, §2, §3, §4

DMS273 lung cancer cells = experiment: antitumor activity, sulforhodamine B cell growth assay, DMS273; conditions: DMS273, drug exposure 48 hours, read-out: GI50 value: 50% growth inhibitory concentration
Description: as §1, §2, §3, §4

[13] = system: MCF-7 breast cancer cells; experiment: antitumor activity, sulforhodamine B cell growth assay, MCF-7; conditions: MCF-7, drug exposure 48 hours, read-out: GI50 value: 50% growth inhibitory concentration
Description: as §1, §2, §3, §4

[14] = system: SNB-75 central nervous system cancer cells; experiment: antitumor activity, sulforhodamine B cell growth assay, SNB-75; conditions: SNB-75, drug exposure 48 hours, read-out: GI50 value: 50% growth inhibitory concentration
Description: as §1, §2, §3, §4

OVCAR-8 cancer cells = experiment: antitumor activity, sulforhodamine B cell growth assay, OVCAR-8; conditions: OVCAR-8, drug exposure 48 hours, read-out: GI50 value: 50% growth inhibitory concentration
Description: as §1, §2, §3, §4

SK-OV-3 cancer cells = experiment: antitumor activity, sulforhodamine B cell growth assay, SK-OV-3; conditions: SK-OV-3, drug exposure 48 hours, read-out: GI50 value: 50% growth inhibitory concentration
Description: as §1, §2, §3, §4

[15] = system: MKN45 gastric cancer cells; experiment: antitumor activity, sulforhodamine B cell growth assay, MKN45; conditions: MKN45, drug exposure 48 hours, read-out: GI50 value: 50% growth inhibitory concentration
Description: as §1, §2, §3, §4

[16] = system: SNB-78 central nervous system cancer cells; experiment: antitumor activity, sulforhodamine B cell growth assay, SNB-78; conditions: SNB-78, drug exposure 48 hours, read-out: GI50 value: 50% growth inhibitory concentration
Description: as §1, §2, §3, §4

COc1c(C)cc2c(c1O)[C@@H]1[C@@H]3Cc4c5c(C)c6c(c4C(CNC(=O)[C@H](C)NC(=O)OCC4C=C(CO5)Cn5c(=O)n(-c7ccccc7)c(=O)n54)N3[C@@H](C#N)[C@H](C2)N1C)OCO6 [Compound 16] was tested. Which GI50 (OVCAR-4 cancer cells; Homo sapiens) did it give?
The GI50 was 36 nM.

And the GI50 (OVCAR-3 cancer cells; Homo sapiens)?
Its GI50 is 6.4 nM.

What about the GI50 [1] of the same molecule?
The GI50 was 37 nM.

What about the GI50 (LOX-IMVI melanoma cells; Homo sapiens) of the same molecule?
Its GI50 is 3.3 nM.

What about the GI50 [2] of the same molecule?
The GI50 was 30 nM.

What about the GI50 [3] of the same molecule?
The GI50 was 29 nM.

And the GI50 ([4]; Homo sapiens)?
Its GI50 is 25 nM.

And the antitumor activity [5]?
The antitumor activity was “better antitumor activity than Cyanosafracin B”.

What about the GI50 ([6]; Homo sapiens, U-251) of the same molecule?
The GI50 was 5.8 nM.

What about the GI50 ([7]; HBC5) of the same molecule?
Its GI50 is 6.9 nM.

What about the GI50 ([8]; Homo sapiens, MKN-1) of the same molecule?
The GI50 was 4.8 nM.

What about the GI50 ([9]; Homo sapiens, KM12) of the same molecule?
Its GI50 is 14 nM.

And the GI50 ([10]; Homo sapiens)?
Its GI50 is 7.3 nM.

What about the GI50 ([11]; Homo sapiens) of the same molecule?
The GI50 was 43 nM.

What about the GI50 [12] of the same molecule?
The GI50 was 35 nM.

And the GI50 (DMS273 lung cancer cells; Homo sapiens, DMS-273)?
The GI50 was 15 nM.

What about the GI50 ([13]; Homo sapiens, MCF7) of the same molecule?
Its GI50 is 4.4 nM.

What about the GI50 ([14]; Homo sapiens) of the same molecule?
The GI50 was 9.9 nM.

What about the GI50 (OVCAR-8 cancer cells; Homo sapiens) of the same molecule?
The GI50 was 21 nM.

And the GI50 (SK-OV-3 cancer cells; Homo sapiens)?
Its GI50 is 34 nM.

And the GI50 ([15]; Homo sapiens, MKN-45)?
Its GI50 is 7.1 nM.

And the GI50 ([16]; Homo sapiens)?
The GI50 was 7.5 nM.

What does the source list for COc1c(C)cc2c(c1O)C1C3Cc4c5c(C)c6c(c4C(CNC(=O)C(C)NC(=O)OCC4C=C(CO5)CC5C(=O)N(c7ccccc7)C(=O)C45)N3C(C#N)C(C2)N1C)OCO6 (centres unmarked) [Compound 18]?
GI50 (OVCAR-4 cancer cells): 350 nM; GI50 (OVCAR-3 cancer cells): 43 nM; GI50 [1]: 300 nM; GI50 (LOX-IMVI melanoma cells): 27 nM; GI50 [2]: 160 nM; GI50 [3]: 210 nM; GI50 [4]: 280 nM; antitumor activity [5]: better antitumor activity than Cyanosafracin B; GI50 [6]: 50 nM; GI50 [7]: 38 nM; GI50 [8]: 50 nM; GI50 [9]: 100 nM; GI50 [10]: 72 nM; GI50 [11]: 630 nM; GI50 [12]: 310 nM; GI50 (DMS273 lung cancer cells): 100 nM; GI50 [13]: 22 nM; GI50 [14]: 50 nM; GI50 (OVCAR-8 cancer cells): 130 nM; GI50 (SK-OV-3 cancer cells): 410 nM; GI50 [15]: 78 nM; GI50 [16]: 40 nM
